# Assay results published in article PMC10454678, “Synthesis of hydroxy benzoin/benzil analogs and investigation of their antioxidant, antimicrobial, enzyme inhibition, and cytotoxic activities” (Turkish Journal of Chemistry, 2021).
# Like-named read-outs stand apart in the source and are kept apart here.
# Experiments:
# [1] = Ferric reducing antioxidant power (FRAP) assay; conditions: Trolox equivalents, compounds 2 mg/mL, 30 °C 30 min, 595 nm
# [2] = tested on: Bacillus subtilis ATCC1266; test: MIC, microdilution, B. subtilis; assay type: cell-based; conditions: Gram (+) nonpathogenic spore forming
# acetylcholinesterase = acetylcholinesterase (Homo sapiens, UniProt P22303); test: biochemical; conditions: Tris-HCl pH 8.0, 25 °C, 405 nm; for IC50: read-out: AChE IC50 (converted)
# acetylcholinesterase, sequence (P22303 32-614, species assumed): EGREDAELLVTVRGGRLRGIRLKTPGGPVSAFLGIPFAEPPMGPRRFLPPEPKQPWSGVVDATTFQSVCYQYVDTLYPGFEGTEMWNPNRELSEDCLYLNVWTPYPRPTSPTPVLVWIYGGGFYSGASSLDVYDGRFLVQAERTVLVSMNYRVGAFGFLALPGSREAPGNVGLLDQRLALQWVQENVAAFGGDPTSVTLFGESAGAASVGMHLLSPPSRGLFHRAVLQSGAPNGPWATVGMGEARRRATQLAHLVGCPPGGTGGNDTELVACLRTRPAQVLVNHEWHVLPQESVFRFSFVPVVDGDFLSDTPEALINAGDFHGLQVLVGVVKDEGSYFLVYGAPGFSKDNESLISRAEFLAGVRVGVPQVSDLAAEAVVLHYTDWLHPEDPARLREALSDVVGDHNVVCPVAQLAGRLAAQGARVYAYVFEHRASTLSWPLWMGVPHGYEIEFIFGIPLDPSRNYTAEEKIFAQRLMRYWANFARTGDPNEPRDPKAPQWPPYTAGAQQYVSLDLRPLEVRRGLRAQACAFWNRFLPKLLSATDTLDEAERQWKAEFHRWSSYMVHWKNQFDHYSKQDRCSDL
# [3] = DPPH radical scavenging activity; conditions: 0.1 mM DPPH, 50 min dark, 517 nm
# α-glucosidase = test: α-Glucosidase inhibition; assay type: biochemical; conditions: PNPG, pH 6.8, 37 °C, 400 nm
# Experimental: It was incubated at 37 °C for 15 min. Similarly, an enzyme-free blank was prepared. The reaction was stopped when sodium carbonate (50 μL, 0.2 M) was added.
# butyrylcholinesterase = butyrylcholinesterase (Homo sapiens, UniProt P06276); test: biochemical; conditions: Tris-HCl pH 8.0, 25 °C, 405 nm; for IC50: read-out: BChE IC50 (converted)
# butyrylcholinesterase, sequence (P06276 29-602): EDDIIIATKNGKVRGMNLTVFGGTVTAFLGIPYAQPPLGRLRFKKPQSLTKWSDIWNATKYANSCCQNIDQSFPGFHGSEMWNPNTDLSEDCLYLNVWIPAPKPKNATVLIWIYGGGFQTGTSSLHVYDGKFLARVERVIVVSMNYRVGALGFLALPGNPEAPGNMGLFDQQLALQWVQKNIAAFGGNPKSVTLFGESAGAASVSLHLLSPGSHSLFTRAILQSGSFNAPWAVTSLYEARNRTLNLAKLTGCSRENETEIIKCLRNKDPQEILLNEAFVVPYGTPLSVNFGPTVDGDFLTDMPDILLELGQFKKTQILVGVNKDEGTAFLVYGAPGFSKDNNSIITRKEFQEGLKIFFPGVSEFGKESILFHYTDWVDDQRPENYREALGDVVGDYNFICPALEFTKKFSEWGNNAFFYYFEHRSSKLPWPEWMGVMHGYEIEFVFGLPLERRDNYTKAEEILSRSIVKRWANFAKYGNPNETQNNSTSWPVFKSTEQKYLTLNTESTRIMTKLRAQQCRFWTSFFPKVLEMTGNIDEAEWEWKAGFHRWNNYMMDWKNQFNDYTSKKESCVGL
# [4] = tested on: Paenibacillus larvae DSM7030; test: MIC, microdilution, P. larvae; assay type: cell-based; conditions: Gram (+) nonpathogenic spore forming
# [5] = Copper ions reducing activity (CUPRAC); conditions: Trolox equivalents; 30 min dark, room temperature, 450 nm
# [6] = tested on: Mycobacterium smegmatis ATCC607; test: MIC, microdilution, M. smegmatis; assay type: cell-based; conditions: Tub., BHI broth, 36 °C; for MIC Ms: 72 h; for MIC: Mycolicibacterium smegmatis, ATCC607, 72 h, read-out: MIC Ms
# [7] = tested on: Yersinia pseudotuberculosis ATCC911; test: microbe, parasite or virus in culture; assay type: cell-based; conditions: for MIC: Yersinia pseudotuberculosis, ATCC911, read-out: MIC Yp
# Bacillus cereus Roma709 = test: MIC, microdilution, B. cereus; assay type: cell-based; conditions: for MIC: Bacillus cereus
# [8] = tested on: Staphylococcus aureus ATCC25923; test: MIC, microdilution, S. aureus; assay type: cell-based; conditions: for MIC: Staphylococcus aureus
# [9] = tested on: Streptococcus mutans RSKK07038; test: MIC, microdilution, S. mutans; assay type: cell-based; conditions: for MIC: Streptococcus mutans, read-out: MIC Sm
# [10] = tested on: Escherichia coli ATCC 25922; test: MIC, microdilution, E. coli; assay type: cell-based; conditions: for MIC: Escherichia coli
# α-amylase = α-amylase (Sus scrofa, UniProt P00690); test: α-Amylase inhibition (Caraway-Somogyi I2/KI method); assay type: biochemical; conditions: starch, pH 6.9, 37 °C, 630 nm
# α-amylase, sequence (P00690 16-511): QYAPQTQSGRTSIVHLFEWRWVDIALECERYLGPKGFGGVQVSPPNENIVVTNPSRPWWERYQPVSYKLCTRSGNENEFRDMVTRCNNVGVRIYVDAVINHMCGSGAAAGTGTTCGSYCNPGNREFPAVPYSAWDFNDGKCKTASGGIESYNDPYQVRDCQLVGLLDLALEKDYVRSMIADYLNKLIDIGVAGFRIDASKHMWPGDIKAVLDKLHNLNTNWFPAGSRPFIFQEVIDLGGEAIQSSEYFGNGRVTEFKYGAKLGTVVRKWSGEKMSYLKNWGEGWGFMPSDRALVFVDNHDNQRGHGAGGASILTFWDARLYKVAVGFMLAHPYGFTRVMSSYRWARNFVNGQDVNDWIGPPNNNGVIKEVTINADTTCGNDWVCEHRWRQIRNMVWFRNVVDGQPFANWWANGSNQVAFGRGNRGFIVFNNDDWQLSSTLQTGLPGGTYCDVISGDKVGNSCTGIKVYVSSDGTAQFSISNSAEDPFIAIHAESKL
# tyrosinase = tyrosinase (Agaricus bisporus, UniProt C7FF04); test: Tyrosinase inhibition (dopachrome method); assay type: biochemical; conditions: L-DOPA substrate, pH 6.8, 25 °C, 492 nm
# tyrosinase, sequence (C7FF04 1-392): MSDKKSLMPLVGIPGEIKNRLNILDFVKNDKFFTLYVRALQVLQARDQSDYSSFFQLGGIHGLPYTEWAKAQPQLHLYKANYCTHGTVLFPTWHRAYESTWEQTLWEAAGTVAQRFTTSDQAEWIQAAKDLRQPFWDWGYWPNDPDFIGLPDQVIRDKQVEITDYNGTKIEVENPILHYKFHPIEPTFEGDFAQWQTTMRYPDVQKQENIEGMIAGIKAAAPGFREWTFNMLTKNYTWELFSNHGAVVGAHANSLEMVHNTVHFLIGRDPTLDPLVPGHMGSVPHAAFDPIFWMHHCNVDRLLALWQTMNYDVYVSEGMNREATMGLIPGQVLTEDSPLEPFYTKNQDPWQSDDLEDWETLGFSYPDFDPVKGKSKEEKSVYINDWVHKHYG
# [11] = tested on: Enterococcus faecalis ATCC29212; test: MIC, microdilution, E. faecalis; assay type: cell-based; conditions: for MIC: Enterococcus faecalis
# [12] = tested on: Candida albicans ATCC60193; test: MIC, microdilution, C. albicans; assay type: cell-based; conditions: for MIC: Candida albicans, read-out: MIC Ca
# [13] = tested on: Pseudomonas aeruginosa ATCC27853; test: MIC, microdilution, P. aeruginosa; assay type: cell-based; conditions: for MIC: Pseudomonas aeruginosa
# [14] = tested on: human cervical cancer cell line (HeLa); test: MTT cell proliferation, HeLa
# [15] = tested on: human retinal normal cell line (RPE); test: MTT cell proliferation, RPE
# [16] = Gram (-), Mueller-Hinton broth, 18-24 h, 36 °C
# [17] = Gram (+), Mueller-Hinton broth, 18-24 h, 36 °C
# [18] = ROMA709, Gram (+), Mueller-Hinton broth, 18-24 h, 36 °C, read-out: MIC Bc
# [19] = ATCC25923, Gram (+), Mueller-Hinton broth, 18-24 h, 36 °C, read-out: MIC Sa
# [20] = RSKK07038, Gram (+), BHI broth, 72 h, 36 °C
# [21] = ATCC29212, Gram (+), Mueller-Hinton broth, 18-24 h, 36 °C, read-out: MIC Ef
# [22] = ATCC60193, fungus, YEPD broth, 48 h, 36 °C
# [23] = ATCC27853, Gram (-), Mueller-Hinton broth, 18-24 h, 36 °C, read-out: MIC Pa
# [24] = ATCC25922, Gram (-), Mueller-Hinton broth, 18-24 h, 36 °C, read-out: MIC Ec
Compound,"FRAP, the iron reducing antioxidant power [1] [μg/mL trolox/gram DW]",IC50 (acetylcholinesterase) [mM],DPPH radical scavenging capacity (SC50) [3] [mg/mL],α-Glucosidase IC50 (α-glucosidase) [µg/mL],IC50 (butyrylcholinesterase) [mM],MIC [4] [µg/mL],"CUPRAC, copper reducing antioxidant power [5] [μg/mL trolox/gram DW]",MIC Ms [6] [µg/mL],MIC [6] [µg/mL],MIC [7] [µg/mL],also measured
"O=C(C(=O)c1ccc(OC2O[C@H](CO)[C@@H](O)[C@H](O)[C@H]2O)cc1)c1ccccc1 (stereo partly drawn) [Compound 22, 1-(4-O-β -D-Glucopyranosylphenyl)-2-phenylethane-1,2-dione]",1845.42 ± 41.36,0.342,47.54 ± 1.05,212.24,1.36,12 to 27,248.97 ± 34.06,,,,MIC [2]: 12 to 27 µg/mL
"2-Hydroxy-1-(3,5-dihydroxyphenyl)-2-(3-hydroxyphenyl)ethanone and 2-Hydroxy-1-(3-hydroxyphenyl)-2-(3,5-dihydroxyphenyl)ethanone [6a+b]",2237 ± 58.3,,9.48 ± 0.3,76.53,,,506.67 ± 17.3,12,,,"FRAP, the iron reducing antioxidant power ([1]; listed as 6): 2237±58.3 μg/mL trolox/gram DW; MIC Yp [7, 16]: 103 µg/mL; MIC Bc (Bacillus cereus Roma709; [17]): 24 µg/mL; MIC Sa [8, 17]: 12 µg/mL; MIC Sm ([9]; Gram (+), BHI broth, 72 h, 36 °C): 12 µg/mL; AChE IC50 (acetylcholinesterase): >1000 µg/mL; MIC Ec [10, 16]: 103 µg/mL; α-Amylase IC50 (α-amylase): 230.76 µg/mL; Tyrosinase IC50 (tyrosinase): 25.45 µg/mL; BChE IC50 (butyrylcholinesterase): 592.92 µg/mL; MIC Ef [11, 17]: 24 µg/mL; MIC Ca ([12]; fungus, YEPD broth, 48 h, 36 °C): 103 µg/mL; MIC Pa [13, 16]: 52 µg/mL"
"O=C(C(=O)c1cccc(O)c1)c1ccccc1 [Compound 8, 1-(3-Hydroxyphenyl)-2-phenylethane-1,2-dione]",1678 ± 64.6,> 4.42,13.56 ± 1.2,>1000,> 4.42,,1095.00 ± 18.1,11,9 to 18,167,"MIC (Bacillus cereus Roma709; [18]): 11 µg/mL; MIC [8, 19]: 11 µg/mL; MIC [9, 20]: 21 µg/mL; MIC ([10]; ATCC25922, read-out: MIC Ec): 167 µg/mL; MIC [11, 21]: 21 µg/mL; MIC [12, 22]: 41 µg/mL; MIC [13, 23]: 11 µg/mL"
2-Hydroxy-1-(3-O- β -D-glucopyranosylphenyl)-2-(3-hydroxyphenyl)-ethanone; 2-Hydroxy-1-(3-hydroxyphenyl)-2-(3-O- β -D-glucopyranosylphenyl)ethanone [18a+b],2743.75 ± 25.20,,12.11 ± 0.43,>1000,,,385.80 ± 37.12,,,,"GI50 HeLa cell line ([14]; MTT, 24 h incubation): 2.23 µg/mL; IC50 HeLa cell line ([14]; MTT, 24 h incubation): 104.49 µg/mL; GI50 RPE normal cell line ([15]; MTT, 24 h incubation): 1.90 µg/mL; IC50 RPE normal cell line ([15]; MTT, 24 h incubation): 83.81 µg/mL; α-Amylase IC50 (α-amylase): >1000 µg/mL; Tyrosinase IC50 (tyrosinase): >1000 µg/mL"
"O=C(c1cc(O)cc(O)c1)C(O)c1ccccc1 (stereo not shown) [Compound 3, 2-Hydroxy-1-(3,5-dihydroxyphenyl)-2-phenylethanone]",1111 ± 47.9,1.63,8.72 ± 0.26,812.10,0.592,,90.00 ± 6.8,,103,1660,"MIC (Bacillus cereus Roma709; ROMA709, read-out: MIC Bc): 207 µg/mL; MIC ([8]; ATCC25923, read-out: MIC Sa): 207 µg/mL; MIC [9, 20]: 414 µg/mL; MIC [10, 24]: 820 µg/mL; MIC [11, 21]: 820 µg/mL; MIC [12, 22]: 414 µg/mL; MIC [13, 23]: 207 µg/mL"
"O=C(C(=O)c1cccc(OC2O[C@H](CO)[C@@H](O)[C@H](O)[C@H]2O)c1)c1ccc(O)cc1 (stereo partly drawn) [Compound 25, 1-(3-O-β -D-Glucopyranosylphenyl)-2-(4-hydroxyphenyl)ethane-1,2-dione]",2570.42 ± 25.01,0.562,26.33 ± 0.39,>1000,0.331,8 to 15,147.54 ± 25.04,,8 to 15,,"GI50 ([14]; Homo sapiens, HeLa, 24 h, read-out: GI50 HeLa cell line): 2.21 µg/mL; IC50 ([14]; Homo sapiens, HeLa, 24 h, read-out: IC50 HeLa cell line): 81.5 µg/mL; GI50 ([15]; Homo sapiens, 24 h, read-out: GI50 RPE normal cell line): 3.38 µg/mL; IC50 ([15]; Homo sapiens, 24 h, read-out: IC50 RPE normal cell line): 102 µg/mL; MIC [10, 24]: 8 to 15 µg/mL"
"O=C(C(=O)c1cc(O)cc(O)c1)c1cccc(O)c1 [Compound 13, 1-(3,5-Dihydroxyphenyl)-2-(3-hydroxyphenyl)ethane-1,2-dione]",1844 ± 56.2,> 3.87,9.42 ± 0.8,>1000,> 3.87,,,11,9 to 18,167,"MIC (Bacillus cereus Roma709; [18]): 11 µg/mL; MIC [8, 19]: 11 µg/mL; MIC ([9]; RSKK07038, 72 h): 21 µg/mL; MIC ([10]; ATCC25922, read-out: MIC Ec): 167 µg/mL; MIC ([11]; ATCC29212, read-out: MIC Ef): 21 µg/mL; MIC ([12]; ATCC60193, 48 h): 41 µg/mL; MIC ([13]; ATCC27853, read-out: MIC Pa): 11 µg/mL"
"O=C(C(=O)c1cccc(OC2O[C@H](CO)[C@@H](O)[C@H](O)[C@H]2O)c1)c1ccccc1 (stereo partly drawn) [Compound 21, 1-(3-O-β -D-Glucopyranosylphenyl)-2-phenylethane-1,2-dione]",1981.25 ± 28.33,> 2.57,36.94 ± 1.71,>1000,> 2.57,12 to 27,109.94 ± 19.42,,,,MIC [2]: 12 to 27 µg/mL
